Source: PubChem BioAssay AID2060504 (Molecular Pharmacology Branch, DTP, NCI, 2025)

Test system: 636577-100-R-J1-PDC complex spheroid viability
Assay: Anticancer human tumor 636577-100-R-J1-PDC patient-derived endometrial adenocarcinoma cell line growth inhibition [GQUAD]
Details: for IC50: curve of first compound; for viability, T/C: stronger effect = lower value
In short: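 Tumor cells were grown as complex spheroids with HUVEC endothelial cells and mesenchymal stem cells as stroma. G-quadruplex stabilizers were combined with targeted agents over half-log dilutions from near the clinical Cmax, or from 10 microM.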

[1] = second compound 0.0316 µM, first compound 0.0316 µM
[2] = second compound 0.0316 µM, first compound 0.316 µM
[3] = second compound 0.1 µM, first compound 0.0316 µM
[4] = second compound 0.1 µM, first compound 0.316 µM
[5] = second compound 0.316 µM, first compound 0.0316 µM
[6] = second compound 0.316 µM, first compound 0.316 µM
[7] = second compound 1 µM, first compound 0.0316 µM
[8] = second compound 1 µM, first compound 0.316 µM
[9] = second compound 3.16 µM, first compound 0.0316 µM
[10] = second compound 3.16 µM, first compound 0.316 µM
[11] = second compound 10 µM, first compound 0.0316 µM
[12] = second compound 10 µM, first compound 0.316 µM
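Note: viability read after seven days of drug exposure.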
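Throughout, for viability, T/C: luminescence signal used as a proxy for viable cells; 100% = DMSO vehicle control wells.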

Cc1[nH]c2ccccc2c1CCNCc1ccc(/C=C/C(=O)NO)cc1 + Cc1cnc(CNC(=O)c2c(=O)c3ccc(N4CCCN(C)CC4)nc3n3c2sc2ccccc23)cn1
IC50 (second compound 0.0316 µM): < 0.999 nM
IC50 (second compound 0.1 µM): < 0.999 nM
IC50 (second compound 0.316 µM): < 0.999 nM
IC50 (second compound 1 µM): < 0.999 nM
IC50 (second compound 3.16 µM): < 0.999 nM
IC50 (second compound 10 µM): < 0.999 nM
viability, T/C (second compound 0.0316 µM, first compound 0.000999 µM): 49.7%
viability, T/C (second compound 0.0316 µM, first compound 0.00316 µM): 28.9%
viability, T/C (second compound 0.0316 µM, first compound 0.00999 µM): 20.8%
viability, T/C [1]: 12.3%
viability, T/C (second compound 0.0316 µM, first compound 0.0999 µM): 6.33%
viability, T/C [2]: 8.17%
viability, T/C (second compound 0.1 µM, first compound 0.000999 µM): 32.3%
viability, T/C (second compound 0.1 µM, first compound 0.00316 µM): 22.8%
viability, T/C (second compound 0.1 µM, first compound 0.00999 µM): 24.6%
viability, T/C [3]: 12.8%
viability, T/C (second compound 0.1 µM, first compound 0.0999 µM): 6.63%
viability, T/C [4]: 8.31%
viability, T/C (second compound 0.316 µM, first compound 0.000999 µM): 26.1%
viability, T/C (second compound 0.316 µM, first compound 0.00316 µM): 24.2%
viability, T/C (second compound 0.316 µM, first compound 0.00999 µM): 18.9%
viability, T/C [5]: 13.2%
viability, T/C (second compound 0.316 µM, first compound 0.0999 µM): 9.48%
viability, T/C [6]: 8.5%
viability, T/C (second compound 1 µM, first compound 0.000999 µM): 21.1%
viability, T/C (second compound 1 µM, first compound 0.00316 µM): 20.9%
viability, T/C (second compound 1 µM, first compound 0.00999 µM): 18.7%
viability, T/C [7]: 11.1%
viability, T/C (second compound 1 µM, first compound 0.0999 µM): 8.25%
viability, T/C [8]: 8.1%
viability, T/C (second compound 3.16 µM, first compound 0.000999 µM): 20.2%
viability, T/C (second compound 3.16 µM, first compound 0.00316 µM): 23.3%
viability, T/C (second compound 3.16 µM, first compound 0.00999 µM): 21.2%
viability, T/C [9]: 12.3%
viability, T/C (second compound 3.16 µM, first compound 0.0999 µM): 10.4%
viability, T/C [10]: 5.1%
viability, T/C (second compound 10 µM, first compound 0.000999 µM): 22.6%
viability, T/C (second compound 10 µM, first compound 0.00316 µM): 24.1%
viability, T/C (second compound 10 µM, first compound 0.00999 µM): 20.1%
viability, T/C [11]: 11.8%
viability, T/C (second compound 10 µM, first compound 0.0999 µM): 12.2%
viability, T/C [12]: 0.15%

O=C(NO)c1cnc(N2CCN(S(=O)(=O)c3ccc4ccccc4c3)CC2)nc1 + Cc1cnc(CNC(=O)c2c(=O)c3ccc(N4CCCN(C)CC4)nc3n3c2sc2ccccc23)cn1
IC50 (second compound 0.0316 µM): < 31.6 nM
IC50 (second compound 0.1 µM): < 31.6 nM
IC50 (second compound 0.316 µM): < 31.6 nM
IC50 (second compound 1 µM): < 31.6 nM
IC50 (second compound 3.16 µM): < 31.6 nM
IC50 (second compound 10 µM): < 31.6 nM
viability, T/C [1]: 29.4%
viability, T/C (second compound 0.0316 µM, first compound 0.1 µM): 20.2%
viability, T/C [2]: 6.22%
viability, T/C (second compound 0.0316 µM, first compound 1 µM): 5.24%
viability, T/C (second compound 0.0316 µM, first compound 3.16 µM): 0.21%
viability, T/C (second compound 0.0316 µM, first compound 10 µM): 0.09%
viability, T/C [3]: 24.2%
viability, T/C (second compound 0.1 µM, first compound 0.1 µM): 17.7%
viability, T/C [4]: 6.24%
viability, T/C (second compound 0.1 µM, first compound 1 µM): 5.27%
viability, T/C (second compound 0.1 µM, first compound 3.16 µM): 0.47%
viability, T/C (second compound 0.1 µM, first compound 10 µM): 0.08%
viability, T/C [5]: 20%
viability, T/C (second compound 0.316 µM, first compound 0.1 µM): 15.8%
viability, T/C [6]: 6.06%
viability, T/C (second compound 0.316 µM, first compound 1 µM): 4.96%
viability, T/C (second compound 0.316 µM, first compound 3.16 µM): 0.17%
viability, T/C (second compound 0.316 µM, first compound 10 µM): 0.07%
viability, T/C [7]: 21.5%
viability, T/C (second compound 1 µM, first compound 0.1 µM): 16.8%
viability, T/C [8]: 6.11%
viability, T/C (second compound 1 µM, first compound 1 µM): 6.97%
viability, T/C (second compound 1 µM, first compound 3.16 µM): 0.05%
viability, T/C (second compound 1 µM, first compound 10 µM): 0.07%
viability, T/C [9]: 16.3%
viability, T/C (second compound 3.16 µM, first compound 0.1 µM): 17.7%
viability, T/C [10]: 9.78%
viability, T/C (second compound 3.16 µM, first compound 1 µM): 3.81%
viability, T/C (second compound 3.16 µM, first compound 3.16 µM): 0.06%
viability, T/C (second compound 3.16 µM, first compound 10 µM): 0.08%
viability, T/C [11]: 21.6%
viability, T/C (second compound 10 µM, first compound 0.1 µM): 16.5%
viability, T/C [12]: 10.8%
viability, T/C (second compound 10 µM, first compound 1 µM): 0.08%
viability, T/C (second compound 10 µM, first compound 3.16 µM): 0.09%
viability, T/C (second compound 10 µM, first compound 10 µM): 0.11%
